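Growth conditions: 96-well plates. Treatment: test compound, 48 hours, 5 concentrations. Analysis: linear interpolation between bracketing concentrations; unreached endpoints set to highest concentration. The concentration for 50% growth inhibition is given as GI50.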 Active and inactive are the calls of the source. No stated cut-off is given here; in the data, active = GI50 up to about 1.1 µM and inactive = higher.
How the values were obtained:
Experiment in all cases: inhibition of tumour cell growth, NCI panel, 48 h
HCT-15 = system: HCT-15
SK-OV-3 = system: SK-OV-3
COLO 205 = system: COLO 205
CAKI-1 = system: CAKI-1
U-251 = system: U-251
HL-60 = system: HL-60
MDA-MB-435 = system: MDA-MB-435
SK-MEL-28 = system: SK-MEL-28
NCI-H460 = system: NCI-H460
IGROV-1 = system: IGROV-1
CCRF-CEM = system: CCRF-CEM
NCI-H522 = system: NCI-H522
786-0 = system: 786-0
LOX IMVI = system: LOX IMVI
KM12 = system: KM12
TK-10 = system: TK-10
NCI-H226 = system: NCI-H226
SF-268 = system: SF-268
SN12C = system: SN12C
DU-145 = system: DU-145

| Compound | GI50 (HCT-15) [µM] | GI50 (SK-OV-3) | GI50 (COLO 205) | GI50 (CAKI-1) | GI50 (U-251) | GI50 (HL-60) | GI50 (MDA-MB-435) | GI50 (SK-MEL-28) | GI50 (NCI-H460) | GI50 (IGROV-1) | GI50 (CCRF-CEM) | GI50 (NCI-H522) | GI50 (786-0) | GI50 (LOX IMVI) | GI50 (KM12) | GI50 (TK-10) | GI50 (NCI-H226) | GI50 (SF-268) | GI50 (SN12C) | GI50 (DU-145) |
| --- | --- | --- | --- | --- | --- | --- | --- | --- | --- | --- | --- | --- | --- | --- | --- | --- | --- | --- | --- | --- |
| COc1cc2c(c(OC)c1OC)C(=O)CC2N (configuration not stated) | > 100 | > 100 µM (inactive) | > 100 µM (inactive) | > 100 µM (inactive) | > 100 µM (inactive) | > 100 µM (inactive) | > 100 µM (inactive) | > 100 µM (inactive) | > 100 µM (inactive) | > 100 µM (inactive) | > 100 µM (inactive) | > 100 µM (inactive) | > 100 µM (inactive) | > 100 µM (inactive) | > 100 µM (inactive) | > 100 µM (inactive) | > 100 µM (inactive) | > 100 µM (inactive) |  |  |
| CC(C)=CCCC1(Sc2ccccc2)C(=O)OCC1C=C(C)C (configuration not stated) | 29.9 | 21.1 µM (inactive) | 23.2 µM (inactive) | 23.2 µM (inactive) | 27.7 µM (inactive) |  | 32.1 µM (inactive) | 47.3 µM (inactive) | 18.3 µM (inactive) | 16.8 µM (inactive) | 32.4 µM (inactive) | 23.2 µM (inactive) | 17.7 µM (inactive) | 16.5 µM (inactive) | 27 µM (inactive) | 34.8 µM (inactive) | 24.3 µM (inactive) | 38.6 µM (inactive) | 15 µM (inactive) |  |
| COC(=O)C1(c2cc3ccccc3n2S(=O)(=O)c2ccccc2)CC2C=CC1NC2 (configuration not stated) | 1.75 | 3.41 µM (inactive) | 2.17 µM (inactive) | 1.82 µM (inactive) | 1.43 µM (inactive) | 1.94 µM (inactive) | 1.63 µM (inactive) | 2.67 µM (inactive) | 3.11 µM (inactive) | 1.34 µM (inactive) | 0.735 µM (active) |  | 1.94 µM (inactive) | 1.74 µM (inactive) | 2.47 µM (inactive) | 2.28 µM (inactive) | 8.97 µM (inactive) |  | 2.08 µM (inactive) | 2.4 µM (inactive) |
| CC1=NN(c2nc(N)nc(NS(=O)(=O)c3cc(C)c(Cl)cc3S)n2)C(C)(C)C1 | > 10 | > 10 µM (inactive) | > 10 µM (inactive) | > 10 µM (inactive) | > 10 µM (inactive) | > 10 µM (inactive) |  | > 10 µM (inactive) | > 10 µM (inactive) | > 10 µM (inactive) | > 10 µM (inactive) | > 10 µM (inactive) | > 10 µM (inactive) | > 10 µM (inactive) | > 10 µM (inactive) | > 10 µM (inactive) | > 10 µM (inactive) | > 10 µM (inactive) | > 10 µM (inactive) | > 10 µM (inactive) |
| NC(CSc1nc2ccccn2c1[N+](=O)[O-])C(=O)O (configuration not stated) | > 100 | > 100 µM (inactive) | > 100 µM (inactive) | > 100 µM (inactive) | > 100 µM (inactive) |  | > 100 µM (inactive) | > 100 µM (inactive) | > 100 µM (inactive) | > 100 µM (inactive) |  | > 100 µM (inactive) | > 100 µM (inactive) |  | > 100 µM (inactive) | > 100 µM (inactive) | > 100 µM (inactive) | > 100 µM (inactive) | > 100 µM (inactive) | > 100 µM (inactive) |
| CC(C)CCCC(C)[C@H]1CC[C@H]2n3c(nnc3-c3ccccc3)CCC[C@]12C (some centres not stated) | 13.8 | 13.4 µM (inactive) | 3.21 µM (inactive) | 14 µM (inactive) | 7.19 µM (inactive) | 3.54 µM (inactive) | 10.7 µM (inactive) | 16.9 µM (inactive) | 9.91 µM (inactive) | 5.74 µM (inactive) | 3.49 µM (inactive) |  | 14.6 µM (inactive) | 1.86 µM (inactive) | 28.8 µM (inactive) | 21.5 µM (inactive) | 14.8 µM (inactive) | 12.7 µM (inactive) | 8.91 µM (inactive) | 16.2 µM (inactive) |
| COc1ccc(-c2c3c(n(C4OC(COC(C)=O)C(OC(C)=O)C(OC(C)=O)C4OC(C)=O)c(=S)c2C#N)CCC3)cc1 (configuration not stated) | > 100 | > 100 µM (inactive) | 86.9 µM (inactive) | > 100 µM (inactive) | > 100 µM (inactive) | > 100 µM (inactive) | > 100 µM (inactive) | > 100 µM (inactive) | > 100 µM (inactive) | > 100 µM (inactive) | > 100 µM (inactive) |  | > 100 µM (inactive) | > 100 µM (inactive) | > 100 µM (inactive) | > 100 µM (inactive) |  | > 100 µM (inactive) | 71.4 µM (inactive) | > 100 µM (inactive) |
| CN1CNc2nc(N)n(C)c(=O)c2C1 | > 10 | > 10 µM (inactive) |  |  | > 10 µM (inactive) | > 10 µM (inactive) | > 10 µM (inactive) |  | > 10 µM (inactive) | > 10 µM (inactive) | > 10 µM (inactive) | > 10 µM (inactive) | > 10 µM (inactive) |  | > 10 µM (inactive) | > 10 µM (inactive) | > 10 µM (inactive) | > 10 µM (inactive) | > 10 µM (inactive) | > 10 µM (inactive) |
| O=c1[nH]c(=S)c2cc3c(=S)[nH]c(=O)n(CCC(c4ccccc4)(c4ccccc4)c4ccccc4)c3nc2n1CCC(c1ccccc1)(c1ccccc1)c1ccccc1 | > 100 | > 100 µM (inactive) | > 100 µM (inactive) | > 100 µM (inactive) | > 100 µM (inactive) |  | > 100 µM (inactive) | > 100 µM (inactive) | > 100 µM (inactive) |  | 13.6 µM (inactive) | > 100 µM (inactive) | > 100 µM (inactive) |  | > 100 µM (inactive) | > 100 µM (inactive) | > 100 µM (inactive) | > 100 µM (inactive) | > 100 µM (inactive) | > 100 µM (inactive) |
| CC1=Nc2c(C#N)ncn2N=C(C)C1 |  | 49 µM (inactive) | > 100 µM (inactive) | > 100 µM (inactive) | > 100 µM (inactive) | > 100 µM (inactive) | > 100 µM (inactive) | > 100 µM (inactive) | > 100 µM (inactive) | > 100 µM (inactive) | 70.5 µM (inactive) |  | > 100 µM (inactive) | > 100 µM (inactive) | > 100 µM (inactive) | > 100 µM (inactive) | > 100 µM (inactive) | > 100 µM (inactive) | > 100 µM (inactive) | > 100 µM (inactive) |
| CCC(C)SC1SCC2C(=O)N(C)C3(CC3C)C(=O)OCC(NC(=O)c3nc4ccccc4cc3O)C(=O)NC(C)C(=O)N(C)C1C(=O)N(C)C1(CC1C)C(=O)OCC(NC(=O)c1nc3ccccc3cc1O)C(=O)NC(C)C(=O)N2C (configuration not stated) | 0.00204 | 0.000144 µM (active) | 5.01e-05 µM (active) | 0.01 µM (active) | 3.18e-05 µM (active) | 9.29e-05 µM (active) | 4.97e-05 µM (active) |  | 4.82e-05 µM (active) | 0.000137 µM (active) | 8.73e-05 µM (active) |  | 3.4e-05 µM (active) | 2.6e-05 µM (active) |  |  | 4.99e-05 µM (active) | 4.81e-05 µM (active) | 4.99e-05 µM (active) | 0.000188 µM (active) |
| O=S(=O)(/N=S(/Nc1ccccc1)C(F)(F)Cl)c1ccccc1 (configuration not stated) | > 100 | > 100 µM (inactive) | > 100 µM (inactive) |  | > 100 µM (inactive) | > 100 µM (inactive) | > 100 µM (inactive) | > 100 µM (inactive) | > 100 µM (inactive) | > 100 µM (inactive) | > 100 µM (inactive) |  | > 100 µM (inactive) | > 100 µM (inactive) | > 100 µM (inactive) | > 100 µM (inactive) | > 100 µM (inactive) | > 100 µM (inactive) | > 100 µM (inactive) | > 100 µM (inactive) |
| O=C1C(NCCN2CCOCC2)=C(Cl)C(=O)c2ncccc21 | 0.339 | 1.43 µM (inactive) |  |  | 0.849 µM (active) | 0.0249 µM (active) | 0.182 µM (active) | 1.61 µM (inactive) | 0.445 µM (active) | 1.05 µM (active) | 0.214 µM (active) |  | 0.431 µM (active) | 0.168 µM (active) | 1.34 µM (inactive) | 1.45 µM (inactive) | 1.69 µM (inactive) | 1.52 µM (inactive) | 1.36 µM (inactive) | 1.01 µM (active) |
| Cc1ccccc1-n1c(C)nc(-c2ccccc2)cc1=O | > 100 | > 100 µM (inactive) | > 100 µM (inactive) | > 100 µM (inactive) | > 100 µM (inactive) | > 100 µM (inactive) |  | > 100 µM (inactive) | > 100 µM (inactive) | > 100 µM (inactive) | > 100 µM (inactive) | > 100 µM (inactive) | > 100 µM (inactive) | > 100 µM (inactive) | > 100 µM (inactive) | > 100 µM (inactive) | > 100 µM (inactive) | > 100 µM (inactive) | > 100 µM (inactive) |  |
| Cc1c2ccncc2c(C)c2c1[nH]c1ccc(OC(C)C)cc12 | 0.984 | 1.42 µM (inactive) | 1.32 µM (inactive) | 1.6 µM (inactive) | 1.38 µM (inactive) | 1.84 µM (inactive) |  | 1.66 µM (inactive) | 1.03 µM (active) | 1.43 µM (inactive) | 1.15 µM (inactive) | 1.63 µM (inactive) | 1.19 µM (inactive) | 1.18 µM (inactive) | 1.35 µM (inactive) | 1.91 µM (inactive) | 1.63 µM (inactive) | 1.43 µM (inactive) | 1.06 µM (active) |  |
| O=C(Nc1cccc(C(F)(F)F)c1)O/N=C(/Cl)CCl | 46.3 | > 100 µM (inactive) | 67.5 µM (inactive) | > 100 µM (inactive) | 39.5 µM (inactive) | 16.8 µM (inactive) |  | 41.5 µM (inactive) | > 100 µM (inactive) | 62.4 µM (inactive) | 30.2 µM (inactive) |  | 40.5 µM (inactive) | 19 µM (inactive) | > 100 µM (inactive) | > 100 µM (inactive) |  | > 100 µM (inactive) | 56 µM (inactive) | > 100 µM (inactive) |

From ChEMBL document CHEMBL1201862, “PubChem BioAssay data set” (2004)
